In ChEMBL document CHEMBL6074678, “Selectively Antagonizing the NOD1-Mediated Inflammatory Signaling Pathway Mitigates the Gastric Inflammation Induced by Helicobacter pylori Infection” (J Med Chem, 2024):

Legend:
[1] = target: T1, Nucleotide-binding oligomerization domain-containing protein 1 (Mus musculus) (UniProt Q8BHB0); assay: Antagonist activity at mouse NOD1 expressed in HEK-Blue cells assessed as decrease in SEAP secretion at 1 uM incubated for 3 hrs followed by C12-iE-DAP stimulation for 20 hrs by spectrophotometry relative to control; type: cell-based
T1 sequence (whole entry): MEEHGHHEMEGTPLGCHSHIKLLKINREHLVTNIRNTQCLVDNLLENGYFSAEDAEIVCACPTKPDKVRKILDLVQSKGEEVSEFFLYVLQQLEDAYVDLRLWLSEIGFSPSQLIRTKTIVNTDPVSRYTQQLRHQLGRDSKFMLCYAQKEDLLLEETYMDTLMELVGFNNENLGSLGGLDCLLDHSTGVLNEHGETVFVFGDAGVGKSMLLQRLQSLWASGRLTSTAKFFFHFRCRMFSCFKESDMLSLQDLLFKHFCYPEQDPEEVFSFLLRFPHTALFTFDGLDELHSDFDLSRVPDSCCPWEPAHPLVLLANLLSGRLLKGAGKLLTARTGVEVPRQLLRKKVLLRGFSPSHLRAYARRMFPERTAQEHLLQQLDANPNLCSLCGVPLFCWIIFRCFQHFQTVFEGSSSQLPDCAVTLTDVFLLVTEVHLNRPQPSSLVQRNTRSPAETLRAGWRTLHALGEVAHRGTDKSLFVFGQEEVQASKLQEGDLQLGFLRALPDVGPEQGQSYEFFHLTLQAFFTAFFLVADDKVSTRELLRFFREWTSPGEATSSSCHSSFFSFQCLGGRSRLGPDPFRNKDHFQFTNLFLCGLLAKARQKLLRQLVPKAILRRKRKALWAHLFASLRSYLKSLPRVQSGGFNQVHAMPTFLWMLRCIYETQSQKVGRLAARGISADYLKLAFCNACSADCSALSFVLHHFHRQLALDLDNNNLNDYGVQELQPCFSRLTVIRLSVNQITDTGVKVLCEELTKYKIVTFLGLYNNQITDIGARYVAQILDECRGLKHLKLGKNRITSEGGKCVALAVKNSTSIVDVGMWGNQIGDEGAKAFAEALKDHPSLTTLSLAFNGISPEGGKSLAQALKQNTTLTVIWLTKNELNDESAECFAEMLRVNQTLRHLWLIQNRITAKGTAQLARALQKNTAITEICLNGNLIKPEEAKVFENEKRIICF

[2] = target: T2, Nucleotide-binding oligomerization domain-containing protein 1 (Mus musculus, UniProt Q8BHB0); assay: Antagonist activity at mouse NOD1 expressed in HEK-Blue cells assessed as decrease in SEAP secretion incubated for 3 hrs followed by C12-iE-DAP stimulation for 20 hrs by spectrophotometry; type: cell-based, HEK-Blue mNOD1
T2 sequence (Q8BHB0 whole entry): T1 sequence (whole entry)

[3] = target: T1, Nucleotide-binding oligomerization domain-containing protein 1 (Mus musculus); assay: Antagonist activity at mouse NOD1 expressed in HEK-Blue cells assessed as decrease in SEAP secretion at 5 uM incubated for 3 hrs followed by C12-iE-DAP stimulation for 20 hrs by spectrophotometry relative to control; type: cell-based
[4] = target: T3, Nucleotide-binding oligomerization domain-containing protein 1 (Homo sapiens, UniProt Q9Y239); assay: Antagonist activity at human NOD1 expressed in HEK-Blue cells assessed as decrease in SEAP secretion incubated for 3 hrs followed by C12-iE-DAP stimulation for 20 hrs by spectrophotometry; type: cell-based, HEK-Blue hNOD1
T3 sequence (Q9Y239 whole entry): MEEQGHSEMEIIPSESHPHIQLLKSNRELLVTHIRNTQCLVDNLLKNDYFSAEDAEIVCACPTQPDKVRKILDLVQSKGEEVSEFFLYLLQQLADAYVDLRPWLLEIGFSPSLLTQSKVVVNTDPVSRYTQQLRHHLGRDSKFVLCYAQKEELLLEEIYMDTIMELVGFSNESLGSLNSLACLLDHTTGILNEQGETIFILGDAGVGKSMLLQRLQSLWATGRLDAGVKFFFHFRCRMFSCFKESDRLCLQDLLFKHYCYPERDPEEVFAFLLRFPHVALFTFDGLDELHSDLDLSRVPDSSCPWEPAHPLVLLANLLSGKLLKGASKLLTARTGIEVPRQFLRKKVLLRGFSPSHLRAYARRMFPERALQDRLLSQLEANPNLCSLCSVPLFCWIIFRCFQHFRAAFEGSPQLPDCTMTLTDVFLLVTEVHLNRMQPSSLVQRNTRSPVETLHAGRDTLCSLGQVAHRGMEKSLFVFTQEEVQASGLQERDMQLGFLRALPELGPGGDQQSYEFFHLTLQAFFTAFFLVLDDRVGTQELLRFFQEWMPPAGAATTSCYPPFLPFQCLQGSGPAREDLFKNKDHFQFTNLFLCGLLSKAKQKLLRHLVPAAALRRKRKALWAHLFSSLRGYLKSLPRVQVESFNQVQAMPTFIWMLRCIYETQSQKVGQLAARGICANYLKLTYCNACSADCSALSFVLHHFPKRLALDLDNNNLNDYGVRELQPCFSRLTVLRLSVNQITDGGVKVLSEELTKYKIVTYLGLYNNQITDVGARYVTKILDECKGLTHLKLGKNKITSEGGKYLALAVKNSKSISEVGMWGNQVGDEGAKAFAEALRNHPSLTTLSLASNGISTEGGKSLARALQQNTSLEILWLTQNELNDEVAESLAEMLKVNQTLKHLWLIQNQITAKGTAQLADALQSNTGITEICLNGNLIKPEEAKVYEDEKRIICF

[5] = HEK-Blue mNOD1, filed as antagonist, time 23.0 hrs

Compound	inhibition [1, 5] [%]	IC50 [2] [nM]	inhibition ([3]; HEK-Blue mNOD1, time 23.0 hrs) [%]	IC50 [4] [nM]	also measured
O=c1c2cc(Cl)ncc2nc(Cl)n1-c1ccc(Cl)c(NS(=O)(=O)c2ccc(Cl)s2)c1	76.5	300	–	–	–
Cc1nc2ccc(Cl)cc2c(=O)n1-c1ccc(Cl)c(N2Cc3ccccc3S2(=O)=O)c1	–	–	14.5	11200	–
O=c1c2cc(Cl)ncc2nc(Cl)n1-c1ccc(Cl)c(NS(=O)(=O)c2cccnc2)c1	–	381	–	–	–
O=c1c2cc(Br)ccc2nc(Cl)n1-c1ccc(Cl)c(NS(=O)(=O)c2ccccc2F)c1	40.5	–	–	18	–
O=c1c2ccncc2nc(Cl)n1-c1ccc(Cl)c(NS(=O)(=O)c2cc(F)c(F)cc2F)c1	81.8	159	–	7.5	–
O=c1c2cc(OC(F)(F)F)ccc2nc(Cl)n1-c1ccc(Cl)c(NS(=O)(=O)c2c(F)cccc2F)c1	–	2650	–	–	inhibition ([1]; HEK-Blue mNOD1, time 23.0 hrs): 36.5%
Cc1nc2ccc(Cl)cc2c(=O)n1-c1ccc(Cl)c(NC(=O)c2ccccc2F)c1	–	–	< 10	–	–
N[C@@H](CCC(=O)N[C@@H](CSc1nc2cnccc2c(=O)n1-c1ccc(Cl)c(NS(=O)(=O)c2ccccc2F)c1)C(=O)NCC(=O)O)C(=O)O	–	–	–	–	inhibition ([1]; HEK-Blue mNOD1, time 23.0 hrs): -1%
C=CS(=O)(=O)Nc1cc(-n2c(Cl)nc3cnc(Cl)cc3c2=O)ccc1Cl	70.2	1150	–	–	–
COc1cc2nc(Cl)n(-c3ccc(Cl)c(NS(=O)(=O)c4ccccc4F)c3)c(=O)c2cc1Cl	–	–	–	–	inhibition ([1]; HEK-Blue mNOD1, time 23.0 hrs): 39.3%
O=c1c2ccncc2nc(Cl)n1-c1ccc(Cl)c(NS(=O)(=O)c2ccc(F)cc2F)c1	80.5	193	–	–	–
Cc1nc2ccc(Cl)cc2c(=O)n1-c1ccc(Cl)c(C(=O)N2Cc3ccccc3S2(=O)=O)c1	–	–	< 10	–	–
N#Cc1ccccc1S(=O)(=O)Nc1cc(-n2c(Cl)nc3cnc(Cl)cc3c2=O)ccc1Cl	86.3	121	–	1.2	–
O=c1c2cc(Cl)ncc2nc(Cl)n1-c1ccc(Cl)c(NS(=O)(=O)c2ccc3c(c2)CCO3)c1	–	673	–	–	–
O=c1c2ccncc2nc(C(F)F)n1-c1ccc(Cl)c(NS(=O)(=O)c2ccccc2F)c1	–	–	–	–	inhibition ([1]; HEK-Blue mNOD1, time 23.0 hrs): 19.1%
O=c1c2nc(Cl)cnc2nc(Cl)n1-c1ccc(Cl)c(NS(=O)(=O)c2ccccc2F)c1	–	1230	–	–	–
Cc1nc2ccc(Cl)cc2c(=O)n1-c1ccc(Cl)c(N)c1	–	–	< 10	–	–
Cc1nc2ccc(Cl)cc2c(=O)n1-c1ccc(Cl)c(C(=O)O)c1	–	–	< 10	–	–
O=c1c2cc(Cl)ccc2nc(SCCOc2ccc(F)cc2)n1-c1ccc(Cl)c(NS(=O)(=O)c2ccccc2F)c1	–	–	< 10	746	–
COc1ccc2nc(Cl)n(-c3ccc(Cl)c(NS(=O)(=O)c4ccccc4F)c3)c(=O)c2c1	–	–	–	–	inhibition ([1]; HEK-Blue mNOD1, time 23.0 hrs): < 10%
O=c1c2ccncc2nc(Cl)n1-c1ccc(Cl)c(NS(=O)(=O)c2ccc([N+](=O)[O-])cc2F)c1	–	133	–	–	–
O=c1c2cc(C(F)(F)F)ccc2nc(Cl)n1-c1ccc(Cl)c(NS(=O)(=O)c2ccccc2F)c1	–	624	–	–	–
O=c1c2cc(F)c(F)cc2nc(Cl)n1-c1ccc(Cl)c(NS(=O)(=O)c2ccccc2F)c1	55.3	1300	–	–	–
CC(=O)Nc1ccc(Cl)c(NS(=O)(=O)c2ccccc2F)c1	–	–	< 10	–	–
CC(C)NC(=O)CSc1nc2ccc(Cl)cc2c(=O)n1-c1ccc(Cl)c(NS(=O)(=O)c2ccccc2F)c1	–	–	< 10	25	–

Compound	inhibition [1, 5] [%]	IC50 [2] [nM]	inhibition ([3]; HEK-Blue mNOD1, time 23.0 hrs) [%]	IC50 [4] [nM]	also measured
NC(=O)c1nc2ccc(Cl)cc2c(=O)n1-c1ccc(Cl)c(NS(=O)(=O)c2ccccc2F)c1	–	–	–	–	inhibition [3, 5]: 48.2%
Cc1nc2ccc(Cl)cc2c(=O)n1NS(=O)(=O)c1ccc(Cl)cc1	–	–	< 10	–	–
O=c1c2ccncc2nc(C(F)(F)F)n1-c1ccc(Cl)c(NS(=O)(=O)c2ccccc2F)c1	–	–	–	–	inhibition ([1]; HEK-Blue mNOD1, time 23.0 hrs): 7.7%
O=c1c2ccncc2nc(Cl)n1-c1ccc(Cl)c(NS(=O)(=O)c2cc(F)ccc2F)c1	81.8	165	–	8.4	–
O=c1c2cc(Cl)ncc2nc(Cl)n1-c1ccc(Cl)c(NS(=O)(=O)c2ccc3ncsc3c2)c1	85.7	132	–	–	–
O=c1c2cc(-c3cccc(Cl)c3)ccc2nc(Cl)n1-c1ccc(Cl)c(NS(=O)(=O)c2ccccc2F)c1	–	–	–	–	inhibition ([1]; HEK-Blue mNOD1, time 23.0 hrs): 15.6%
Cc1nc2ccc(Cl)cc2c(=O)n1CCCNS(=O)(=O)c1ccccc1F	–	–	< 10	–	–
Cn1cc(S(=O)(=O)Nc2cc(-n3c(Cl)nc4cnc(Cl)cc4c3=O)ccc2Cl)cn1	77.6	267	–	3.1	–
O=c1c2ccccc2nc(Cl)n1-c1ccc(Cl)c(NS(=O)(=O)c2ccccc2F)c1	–	–	–	–	inhibition ([1]; HEK-Blue mNOD1, time 23.0 hrs): < 10%
O=c1c2cc([N+](=O)[O-])ccc2nc(Cl)n1-c1ccc(Cl)c(NS(=O)(=O)c2ccccc2F)c1	52.1	860	–	9.1	–
O=c1c2cc(Cl)ccc2nc(C(F)(F)F)n1-c1ccc(Cl)c(NS(=O)(=O)c2ccccc2F)c1	–	5900	–	68	inhibition [3, 5]: 73.2%
CS(=O)(=O)c1ccc2nc(Cl)n(-c3ccc(Cl)c(NS(=O)(=O)c4ccccc4F)c3)c(=O)c2c1	88.9	110	–	4.4	–
Cc1nc2ccc(Cl)cc2c(=O)n1-c1ccc(Cl)c(S(=O)(=O)Nc2ccccc2F)c1	–	–	21.1	–	–
N#Cc1ccc2nc(Cl)n(-c3ccc(Cl)c(NS(=O)(=O)c4ccccc4F)c3)c(=O)c2c1	83.6	117	–	9.7	–
O=c1c2cc(Cl)ncc2nc(Cl)n1-c1ccc(Cl)c(NS(=O)(=O)c2c(F)cccc2F)c1	87.5	67	–	1.3	–
O=C(CSc1nc2ccc(Cl)cc2c(=O)n1-c1ccc(Cl)c(NS(=O)(=O)c2ccccc2F)c1)Nc1ccccc1	–	–	< 10	44	–
O=c1c2cc(Cl)ncc2nc(Cl)n1-c1ccc(Cl)c(NS(=O)(=O)N2CCCCC2)c1	–	–	–	126	inhibition ([1]; HEK-Blue mNOD1, time 23.0 hrs): 28.7%
O=c1c2cc(C(F)(F)F)ccc2nc(Cl)n1-c1ccc(Cl)c(NS(=O)(=O)c2c(F)cccc2F)c1	65.3	404	–	–	–
CS(=O)(=O)c1ccc2nc(Cl)n(-c3ccc(Cl)c(NS(=O)(=O)c4ccc([N+](=O)[O-])cc4F)c3)c(=O)c2c1	82.3	199	–	–	–
O=c1c2cc(Cl)ccc2nc(NCCCN2CCOCC2)n1-c1ccc(Cl)c(NS(=O)(=O)c2ccccc2F)c1	–	–	–	32	inhibition [3, 5]: 46.5%
Cc1noc(C)c1S(=O)(=O)Nc1cc(-n2c(Cl)nc3cnc(Cl)cc3c2=O)ccc1Cl	–	559	–	–	–
Nc1nc2ccc(Cl)cc2c(=O)n1-c1ccc(Cl)c(NS(=O)(=O)c2ccccc2F)c1	–	–	27.3	44	–
Nc1ccc(Cl)cc1C(=O)Nc1ccc(Cl)c(NS(=O)(=O)c2ccccc2F)c1	–	–	32.9	–	–
O=c1c2cc(Cl)ncc2nc(Cl)n1-c1ccc(Cl)c(NS(=O)(=O)c2ccccc2Cl)c1	–	285	–	–	–
CCOC(=O)c1nc2ccc(Cl)cc2c(=O)n1-c1ccc(Cl)c(NS(=O)(=O)c2ccccc2F)c1	–	–	11.4	–	–
